# Patent US9402821B2, “Methods and pharmaceutical compositions for treatment of cystic fibrosis” (INSERM (Institut National de la sante et de la Recherche …, priority 2012, dated 2016)
# “Also recorded” adds a separate entry of the source.
# What was measured:
# C57BL/6J mice = experiment: LPS-induced lung inflammation mouse model, chemokines in BAL fluid by ELISA; type: in vivo; settings: sulindac 40 mg/kg i.p. 1 h before intratracheal LPS 5 mg/kg
# Experimental: A. Protocol for lung inflammation mouse models. Lung inflammation was induced by two intra tracheal instillation of LPS (5 mg/kg), 24 h and 6 h prior sacrifice. Sulindac (40 mg/kg) or diluents were administered by intraperitoneal injection 1 h before LPS instillation. B. Mouse macrophage inflammatory protein (MIP-2) was monitored in BAL fluid by ELISA assay. LPS-stimulated MIP-2 production was inhibited by sulindac.
# Male C57BL/6J mice (8-10 wk old) were treated by intraperitoneal (IP) injection of sulindac (40 mg/kg) or vehicle one hour before the time of endotoxin administration which caused lung injury. Lung inflammation was induced by LPS from E. coli (Sigma) prepared in saline and administered by injection intra-tracheal. In order to track at a single time point after LPS challenge both the early humoral and the late cell infiltrating components of the inflammatory response, a volume of 50 μl LPS solution (5 mg/kg) was administered at two consecutive doses with a 18 h interval between doses. This challenge method enables to track both cytokine and cellular responses to induction of inflammation. […] The chemokines keratinocyte chemoattractant (KC) and mouse macrophage inflammatory protein (MIP-2) were monitored in BAL fluid following the corresponding manufacturers' protocols using a standard sandwich enzyme-linked immune absorbent assay (ELISA, R&D Systems).
# [1] = test system: AP-1 transcriptional activity; experiment: AP-1 firefly luciferase reporter assay, TNFα-stimulated HeLa cells; type: cell-based; settings: 500 μM, TNFα 10 ng/ml
# Experimental: HeLa cells were transiently transfected by AP-1 firefly luciferase reporter and renilla luciferase reference. HeLa control cells were pre-treated with diluent (0.5%), ibuprofen (500 μM) or sulindac (500 μM) for 1 h and stimulated for 1 h with 10 ng/ml TNFα. After removal of TNFα, cells were incubated for 4 h with pharmacological treatment. The AP-1 transcriptional activity in cells treated with ibuprofen+TNFα and sulindac +TNFα was expressed in percent of diluent+TNFα. Results of three independent experiments, means±SEM. Unilateral paired t test: ** p<0.01. To assay the transcriptional activity of AP-1, pAP1Luc, a luciferase reporter plasmid containing five sequential AP-1 binding sites upstream of a minimum promoter element, was used. […] To normalize transfection efficiency, a renilla luciferase reporter construct (pRL-TK, Promega) was co-transfected with each of the firefly luciferase constructs. To induced AP-1 activity, cells were exposed to TNFα (10 ng/mL) for 1 hour. Cells were pre- and treated with sulindac, ibuprofen or vehicule control one hour before and four hours after this induction.
# [2] = test system: PPAR transcriptional activity; experiment: PPAR firefly luciferase reporter assay (3 PPRE motifs) in HeLa cells; type: cell-based; settings: sulindac 100 μM, 24 h
# Experimental: HeLa control cells were transiently transfected by PPAR firefly luciferase reporter (3 PPRE motifs) and renilla luciferase reference. Cells were treated with diluent (0.5%), ibuprofen (500 μM) or sulindac (100 μM) for 24 h. The PPAR transcriptional activity in cells treated with ibuprofen and sulindac was expressed in percent of diluents. Results of three independent experiments, means±SEM. Unilateral paired t test: ** p<0.01.
# To assay the transcriptional activity of AP-1, pAP1Luc, a luciferase reporter plasmid containing five sequential AP-1 binding sites upstream of a minimum promoter element, was used. Transcriptional activity of PPAR was evaluated with reporter constructs with three sequential PPRE consensus sequences, binding PPAR factors. Transient transfection were realized as described before. To normalize transfection efficiency, a renilla luciferase reporter construct (pRL-TK, Promega) was co-transfected with each of the firefly luciferase constructs. To induced AP-1 activity, cells were exposed to TNFα (10 ng/mL) for 1 hour. Cells were pre- and treated with sulindac, ibuprofen or vehicule control one hour before and four hours after this induction. For PPAR activity, cells were treated with pharmacological drugs for 24 hours.
# Luciferase assay was realized as described before.
# IκB = experiment: Western blot of cytosolic IκB after TNFα; type: cell-based; settings: HeLa control cells; 500 μM 1 h pre-treatment; TNFα 10 ng/ml 30 min
# Experimental: HeLa control cells were pre-treated with diluent (0.5%) or sulindac (500 μM) for 1 h and stimulated or not with 10 ng/ml TNFα for 30 min. Nuclear and cytosolic fractions were obtained by differential centrifugation. A. Analysis by western blot of cytosolic IKb quantity. The Iκb quantity was expressed in percent of control. […] B. Analysis by western blot of nuclear p65 quantity. Nuclear p65 quantity was expressed in percent of diluents+TNFα.
# Nuclear and cytosolic fraction was obtained by differential centrifugation. Briefly, cells were lyses in buffer C (10 mM Hepes, 60 mM KCl, 1 mM EDTA, 7.8% NP40, 100 mM DTT, pH 7.6). After centrifugation, nucleus pellet were lyses in buffer N (27 mM Tris, 566 mM NaCl, 2 mM MgCl2, 1.3 mM EDTA, pH 8). Aliquots of fraction (30 μg protein) were separated by SDS-PAGE and transferred on PVDF membrane. The western blots were probed with mouse monoclonal antibodies specific for IκB or p65 (Santa-Cruz) 2 h at room temperature.
structure (smiles),measurement,setting,value
"CC1=C(CC(=O)O)c2cc(F)ccc2/C1=C\c1ccc([S+](C)[O-])cc1 (centres unmarked) [sulindac, (Z)-5-fluoro-2-methyl-1-[p-(methylsulfinyl)benzylidene]-indene-3-acetic acid]",KC (keratinocyte-derived chemokine) in BAL fluid,C57BL/6J mice,decreased the secretion of KC and MIP-2
same,MIP-2 in BAL fluid,C57BL/6J mice,inhibited; also recorded: decreased the secretion of KC and MIP-2
same,AP-1 transcriptional activity induced by TNF,[1],causes a decrease in the induction
same,PPAR transcriptional activity,[2],increase in the transcriptional activity of PPAR
same,degradation of cytosolic IκB induced by TNFα,IκB,did not modified this effect; also recorded: did not affect the degradation of IκB
